# Reference: US6762207B1, “(E)-styryl sulfone anticancer agents” (priority 1999, dated 2004)
# Columns and labels:
# Format in all cases: cell-based
# Design in all cases: dose or concentration left out as unconfirmed
# Conditions in all cases: 96 hours
# [1] = test system: prostate tumor cell line DU-145; assay: Trypan blue exclusion viability assay, DU145
# Description: (§1) MCF-7 is estrogen-responsive, while BT-20 is an estrogen-unresponsive cell line. NIH/3T3 and HFL are normal murine and human fibroblasts, respectively. MCF-7, BT-20, DLD-1 and H157 were grown in Dulbecco's modified Eagle's medium (DMEM) containing 10% fetal bovine serum supplemented with penicillin and streptomycin. DU145 was cultured in RPMI with 10% fetal bovine serum containing penicillin and streptomycin. […] All cell cultures were maintained at 37° C. in a humidified atmosphere of 5% CO2. Cells were treated with test compound at 2.5 mM concentration and cell viability was determined after 96 hours by the Trypan blue exclusion method.
# [2] = test system: colorectal carcinoma cell line DLD-1; assay: Trypan blue exclusion viability assay, DLD-1
# Description: as §1
# [3] = test system: non-small cell lung carcinoma cell line H157; assay: Trypan blue exclusion viability assay, H157
# Description: as §1
# [4] = test system: breast tumor cell line BT-20; assay: Trypan blue exclusion viability assay, BT20
# Description: as §1
Compound,"Cell death, DU145 [1]","Cell death, DLD-1 [2]","Cell death, H157 [3]","Cell death, BT20 [4]"
"Cc1ccc(CS(=O)(=O)/C=C/c2ccc(Br)cc2)cc1 [Example 56, (E)-4-bromostyryl-4-methylbenzylsulfone]",+ (5-10%: = +),+ (5-10%: = +),+ (5-10%: = +),+ (5-10%: = +)
"N#Cc1ccc(CS(=O)(=O)/C=C/c2ccccc2[N+](=O)[O-])cc1 [Example 52, (E)-2-nitrostyryl-4-cyanobenzylsulfone]",+ (5-10%: = +),+ (5-10%: = +),+ (5-10%: = +),+ (5-10%: = +)
"O=S(=O)(/C=C/c1ccc(Br)cc1)Cc1ccc(C(F)(F)F)cc1 [Example 3, (E)-4-Bromostyryl-4-trifluoromethylbenzylsulfone]",+ (5-10%: = +),+ (5-10%: = +),,++ (10-15% = ++)
"O=S(=O)(/C=C/c1ccccc1C(F)(F)F)Cc1ccc(F)cc1 [Example 32, (E)-2-trifluoromethylstyryl-4-fluorobenzylsulfone]",+ (5-10%: = +),+ (5-10%: = +),+ (5-10%: = +),+ (5-10%: = +)
"O=S(=O)(/C=C/c1cccc(C(F)(F)F)c1)Cc1ccc(Cl)cc1 [Example 40, (E)-3-trifluoromethylstyryl-4-chlorobenzylsulfone]",+ (5-10%: = +),+ (5-10%: = +),+ (5-10%: = +),+ (5-10%: = +)
"O=[N+]([O-])c1cccc(/C=C/S(=O)(=O)Cc2ccc(Cl)cc2)c1 [Example 37, (E)-3-nitrostyryl-4-chlorobenzylsulfone]",+ (5-10%: = +),+ (5-10%: = +),+ (5-10%: = +),+ (5-10%: = +)
(E)-4-trifluoromethylstyryl-4-bromoyanobenzylsulfone [Example 51],+ (5-10%: = +),+ (5-10%: = +),+ (5-10%: = +),+ (5-10%: = +)
"COc1ccc(CS(=O)(=O)/C=C/c2ccc(F)cc2)cc1 [Example 60, (E)-4-fluorostyryl-4-methoxybenzylsulfone]",+++++ (Above 80% = +++++),+++++ (Above 80% = +++++),+++++ (Above 80% = +++++),+++++ (Above 80% = +++++)
"N#Cc1ccc(CS(=O)(=O)/C=C/c2ccc([N+](=O)[O-])cc2)cc1 [Example 54, (E)-4-nitrostyryl-4-cyanobenzylsulfone]",++++ (50-60% = ++++),++++ (50-60% = ++++),++++ (50-60% = ++++),++++ (50-60% = ++++)
"Cc1cc(/C=C/S(=O)(=O)Cc2ccc(Cl)cc2)ccc1F [Example 43, (E)-3-methyl-4-fluorostyryl-4-chlorobenzylsulfone]",+ (5-10%: = +),+ (5-10%: = +),+ (5-10%: = +),+ (5-10%: = +)
"Cc1ccc(CS(=O)(=O)/C=C/c2ccc([N+](=O)[O-])cc2)cc1 [Example 59, (E)-4-nitrostyryl-4-methylbenzylsulfone]",+ (5-10%: = +),+ (5-10%: = +),+ (5-10%: = +),+ (5-10%: = +)
"COc1ccc(CS(=O)(=O)/C=C/c2ccc(Br)cc2)cc1 [Example 62, (E)-4-bromostyryl-4-methoxybenzylsulfone]",++++ (50-60% = ++++),++++ (50-60% = ++++),++++ (50-60% = ++++),++++ (50-60% = ++++)
"O=S(=O)(/C=C/c1ccc(F)cc1C(F)(F)F)Cc1ccc(Cl)cc1 [Example 42, (E)-2-trifluoromethyl-4-fluorostyryl-4-chlorobenzylsulfone]",+ (5-10%: = +),+ (5-10%: = +),+ (5-10%: = +),+ (5-10%: = +)
"O=S(=O)(/C=C/c1ccc(Cl)cc1)Cc1ccc(I)cc1 [Example 23, (E)-4-Chlorostyryl-4-iodobenzylsulfone]",++ (10-15% = ++),++ (10-15% = ++),++ (10-15% = ++),+++ (40-50% = +++)
"Cc1ccc(CS(=O)(=O)/C=C/c2ccccc2[N+](=O)[O-])cc1 [Example 57, (E)-2-nitrostyryl-4-methylbenzylsulfone]",+ (5-10%: = +),+ (5-10%: = +),+ (5-10%: = +),+ (5-10%: = +)
"O=S(=O)(/C=C/c1ccc(C(F)(F)F)cc1)Cc1ccc(F)cc1 [Example 34, (E)4-trifluoromethylstyryl-4-fluorobenzylsulfone]",+ (5-10%: = +),+ (5-10%: = +),+ (5-10%: = +),+ (5-10%: = +)
"Cc1ccc(CS(=O)(=O)/C=C/c2cccc([N+](=O)[O-])c2)cc1 [Example 58, (E)-3-nitrostyryl-4-methylbenzylsulfone]",+ (5-10%: = +),+ (5-10%: = +),+ (5-10%: = +),+ (5-10%: = +)
"O=[N+]([O-])c1cccc(/C=C/S(=O)(=O)Cc2ccc(F)cc2)c1 [Example 30, (E)-3-nitrostyryl-4-fluorobenzylsulfone]",+ (5-10%: = +),+ (5-10%: = +),+ (5-10%: = +),+ (5-10%: = +)
"COc1ccc(CS(=O)(=O)/C=C/c2ccc([N+](=O)[O-])cc2)cc1 [Example 65, (E)-4-nitrostyryl-4-methoxybenzylsulfone]",++++ (50-60% = ++++),++++ (50-60% = ++++),++++ (50-60% = ++++),++++ (50-60% = ++++)
"N#Cc1ccc(CS(=O)(=O)/C=C/c2cccc([N+](=O)[O-])c2)cc1 [Example 53, (E)-3-nitrostyryl-4-cyanobenzylsulfone]",+ (5-10%: = +),+ (5-10%: = +),+ (5-10%: = +),+ (5-10%: = +)
"COc1ccc(CS(=O)(=O)/C=C/c2cccc([N+](=O)[O-])c2)cc1 [Example 64, (E)-3-nitrostyryl-4-methoxybenzylsulfone]",+ (5-10%: = +),+ (5-10%: = +),+ (5-10%: = +),+ (5-10%: = +)
"Cc1ccc(CS(=O)(=O)/C=C/c2ccc(F)cc2)cc1 [Example 55, (E)-4-fluorostyryl-4-methylbenzylsulfone]",+ (5-10%: = +),+ (5-10%: = +),+ (5-10%: = +),+ (5-10%: = +)
"COc1ccc(CS(=O)(=O)/C=C/c2ccc(Cl)cc2)cc1 [Example 61, (E)-4-chlorostyryl-4-methoxybenzylsulfone]",++++ (50-60% = ++++),++++ (50-60% = ++++),++++ (50-60% = ++++),++++ (50-60% = ++++)
"O=S(=O)(/C=C/c1ccc(F)cc1)Cc1ccc(I)cc1 [Example 19, (E)-4-Fluorostyryl-4-iodobenzylsulfone]",+++++ (Above 80% = +++++),+++++ (Above 80% = +++++),+++++ (Above 80% = +++++),+++++ (Above 80% = +++++)
"O=S(=O)(/C=C/c1ccc(Br)cc1)Cc1ccc(Cl)c(Cl)c1 [Example 8, (E)-4-Bromostyryl-3,4-dichlorobenzylsulfone]",− (0% = −),− (0% = −),,− (0% = −)
"O=S(=O)(/C=C/c1ccc(Cl)cc1)Cc1ccc(Cl)c(Cl)c1 [Example 7, (E)-4-Chlorostyryl-3,4-dichlorobenzylsulfone]",− (0% = −),,,++ (10-15% = ++)
